From US6039931A, “Derivatized DTPA complexes, pharmaceutical agents containing these compounds, their use, and processes for their production” (Schering Aktiengesellschaft, priority 1989, dated 2000)

Assays:
[1] = system: male hairless rat (Lew/Mol), Brown Pearce tumor; assay: in vivo NMR imaging (spin echo, 2 tesla) after i.v. administration, rat with Brown Pearce tumor in the thigh; settings: 0.06 mmol/kg i.v.
Text: Spin echo scans were made with the NMR tomograph (CSI 2 T) at 2 tesla (TR time of 400 ms and TE time of 20 ms).

[2] = system: female rats of the strain Lew/Mol; assay: in vivo MRI imaging (T1-weighted spin echo, 2 tesla) after i.v. administration, 3 compounds; design: species or system rat (Lew/Mol); settings: 0.1 mmol Gd/kg i.v.
Text: The test animals were female rats of the strain Lew/Mol weighing 160-180 g. Prior to imaging, the animals were anesthetized ("Rompun"+"Ketavet") and provided with a catheter in the caudal vein to administer the contrast medium. Imaging took place in an MRI experimental device by General Electric (field strength 2 tesla). First of all, the images (7, 9, 11) were made without contrast medium with a T1 -weighted spin echo sequence (TR=400 msec, TE=20 msec, axial section plane, layer thickness 3 mm). The liver appears in each case with the normal signal intensity; the stomach is […] in tendency than the liver. […] This is due to feed residues, the feed containing manganese in relatively high concentrations (at the time of the test, the animals had been fasting for 6 hours) . Animal 3 had been implanted with an osteogenic sarcoma three weeks previously; this sarcoma was of equal contrast in the blank image and could not be defined. The administration of contrast medium took place via the venous catheter with a dose of 0.1 mmol Gd/kg (concentration of the solutions 0.05 mmol Gd/ml in 0.9% NaCl) for all 3 compounds.

[3] = T1 relaxation (relaxivity) in water and in plasma; assay type: physicochemical
[4] = system: female rats of the strain Lew/Mol; settings: at this point in time after administration; commercial contrast medium; cited from earlier work

SMILES: COc1ccc(CC(CN(CCN(CC(=O)[O-])CC(=O)[O-])CC(=O)[O-])N(CC(=O)[O-])CC(=O)[O-])cc1.[Gd+3].[Na+].[Na+] (stereo not drawn) [Example 1(c) disodium salt, Gadolinium Complex of 3,6,9-Triaza-3,6,9-tris(carboxymethyl)-4-(4-methoxybenzyl)undecanedioic Acid]
- enhancement in the urinary bladder ([1]; 1 minute after administration): the first enhancement is already apparent in the urinary bladder
- increase in contrast in the stomach ([1]; 45 minutes after injection): A strong increase in contrast is visible in the stomach
- visualization of the tumor, of the urinary bladder, and of the stomach ([1]; 60 minutes after injection): A good visualization of the tumor (at the level of the reference tube) of the urinary bladder, and of the stomach
- contrasting of the renal pelvis ([1]; 60 minutes, further improved 65 minutes after injection in a different layer): Contrasting of the renal pelvis is also striking
- contrast enhancement in an axial scan in the zone of the liver ([1]; 180 minutes after injection): the contrast enhancement is likewise clearly recognizable

SMILES: CCOc1ccc(CC(CN(CCN(CC(=O)[O-])CC(=O)[O-])CC(=O)[O-])N(CC(=O)[O-])CC(=O)[O-])cc1.[Gd+3].[Na+].[Na+] (stereo not drawn) [Example 8(c), Disodium Salt of the Gadolinium Complex of 3,6,9-Triaza-3,6,9-tris(carboxymethyl)-4-(4-ethoxybenzyl)undecanedioic Acid]
- enhancement of the stomach, ranking among the 3 compounds [2]: least
- enhancement of the liver ([2]; after 90 minutes): A marked enhancement of the liver

SMILES: CCCCOc1ccc(CC(CN(CCN(CC(=O)[O-])CC(=O)[O-])CC(=O)[O-])N(CC(=O)[O-])CC(=O)[O-])cc1.[Gd+3].[Na+].[Na+] (stereo not drawn) [Example 9(c), Disodium Salt of the Gadolinium Complex of 3,6,9-Triaza-3,6,9-tris(carboxymethyl)-4-(4-butoxybenzyl)undecanedioic Acid]
- T1 relaxation ([3]; in plasma): 14.20 ± 0.98 mmol⁻¹ s⁻¹
- T1 relaxation ([3]; in water): 5.80 ± 0.26 mmol⁻¹ s⁻¹
- enhancement of the liver ([2]; after 60 minutes): A marked enhancement of the liver

SMILES: O=C([O-])CN(CCN(CC(=O)[O-])CC(Cc1ccc(OCc2ccccc2)cc1)N(CC(=O)[O-])CC(=O)[O-])CC(=O)[O-].[Gd+3].[Na+].[Na+] (stereo not drawn) [Example 10(c), Disodium Salt of the Gadolinium Complex of 3,6,9-Triaza-3,6,9-tris(carboxymethyl)-4-(4-benzyloxybenzyl)undecanedioic Acid]
- enhancement of the stomach, ranking among the 3 compounds [2]: most strongly
- enhancement of the liver ([2]; after 60 minutes): A marked enhancement of the liver
- absorption of the contrast medium by the tumor (implanted osteogenic sarcoma) ([2]; animal 3, 60 minutes): has not absorbed the contrast medium at all, or only to a lesser proportion
- visibility of the tumor (implanted osteogenic sarcoma) ([2]; animal 3, 60 minutes): the tumor is now additionally clearly visible

SMILES: CNC[C@H](O)[C@@H](O)[C@H](O)[C@H](O)CO.CNC[C@H](O)[C@@H](O)[C@H](O)[C@H](O)CO.O=C([O-])CN(CCN(CC(=O)[O-])CC(=O)O)CCN(CC(=O)[O-])CC(=O)O.[Gd+3] [Magnevist, dimeglumine salt of Gd DTPA [gadolinium(III)complex of diethylenetriaminepentaacetic acid]]
- enhancement of the liver (uptake by the hepatocytes), comparison [4]: cannot be observed at this point in time after administration
